# Reference: US12268727B2, “Bioactive polypeptides for improvements in plant protection, growth and productivity” (priority 2017, dated 2025)
# Several values for one entry are separate records, joined by “and”; a condition that tells them apart may be missing. Equal entries are not always repeated. Non-standard residues stand in square brackets, D forms with d. No end group written: not given here. sY = N[C@@H](Cc1ccc(OS(=O)(=O)O)cc1)C(=O)O
# Legend:
# [1] = tested on: reactive oxygen species (ROS) production in soybean leaf tissue; test: ROS activity assay in soybean leaf tissue (luminol/horseradish peroxidase, RLU); type: cell-based; details: for Description of ROS activity results (soybean): observed
# [2] = tested on: reactive oxygen species (ROS) production in corn tissue; test: ROS activity assay in corn tissue (luminol/horseradish peroxidase, RLU)
# [3] = tested on: reactive oxygen species (ROS) production in tomato leaf tissue; test: ROS activity assay in tomato leaf tissue; type: cell-based
# Experimental: Tomato leaves were excised from 4-week-old plants using a cork borer to generate 4 mm disks. Each disc was cut in half using the edge of a razor blade, and then each disc half was floated on 150 μL of water in a 96-well plate to rest overnight. The next day, the water was removed from each well just prior to polypeptide treatment. The Flg polypeptides as described in Table 66 were added to water to bring them to a final concentration of 5 nM (Table 67) and 100 nM (Table 68) in solution with luminol and HRP before adding to each treatment well. To maintain activity, the polypeptides were stored in small aliquots to avoid multiple freezing and thawing. All dilutions to obtain working concentrations were done in ultrapure water. Polypeptide solutions were stored at −20° C. for short term usage or −80° C. for long term storage. RLU values and relative ROS activity (Tables 67, 68) is reported as the average of 4 measurements.
# corn [4] = test: Foliar application to corn in growth room, plant height (non-stress, heat and water deficit stress); details: for growth phenotype vs control: foliar (HpaG-like 1 μM, PSKα)
# soybean [5] = test: Seed treatment of soybean, field yield trials; type: in vivo
# corn [6] = test: Seed treatment of corn, field yield trials; type: in vivo
# corn [7] = type: in vivo; details: foliar 0.33 Fl. oz/Ac, V5-V8, first year trials, 10 locations
# soybean [8] = test: Foliar application to soybean, field yield trials; type: in vivo; details: 11 locations
# [9] = Table 33, RLU relative to native Bt.4Q7Flg22 = 100
# [10] = Table 35, single polypeptides and combinations, Bt.4Q7Flg22 = 100
# [11] = mutant versus native Bt.4Q7Flg22
# [12] = mutant versus native Bt.4Q7Flg22, *(predicted)
# [13] = seed treatment on base ST, polypeptide 1.0 μM (cellobiose 1 mM where combined)
substance,measurement,setting,value
A spp.Flg22-B4 (ERLSSGYRINRASDDAAGLAIS),Avg. Activity (%) Soybean (297 R4) 100 nM polypeptide,[1]; [9],133.1%
same,Avg. Activity (%) Soybean (297 R4) 100 nM polypeptide,[1]; [10],106.37%
same,Avg. Activity (%) Corn (5828 YX) 5 nM polypeptide,[2]; [9],78.1%
same,Avg. Activity (%) Corn (5828 YX) 5 nM polypeptide,[2]; [10],53.64%
A.spp.FlgII28: FlgII-28 from Aneurinibacillus sp. XH2 (EIHEMLQRMRELAVQAANGTYSDKDKKA; listed as Aneurinibacillus sp.),ROS response,[3]; 5 nM,equally low ROS response
At. PSKα ([sY]I[sY]TQ; listed as Arabidopsis thaliana),Plant Height (cm) Percentage Change Compared to Control (0.01% surfactant) Stress,"corn [4]; separate replicated trials, stress environment, HpaG-like 1 μM, At. PSKα 100 nM foliar",+6.1%
Bp.Flg22 (TRLSSGKRINSAADDAAGLAIS),Avg. Activity (%) Soybean (297 R4) 100 nM polypeptide,[1]; [9],67.2%
same,Avg. Activity (%) Corn (5828 YX) 5 nM polypeptide,[2]; [9],111.2%
Bt 4Q7Flg 22 (DRLSSGKRINSASDDAAGLAIA; listed as Bacillus thuringiensis),Δ Height (cm),"corn [4]; corn Beck's 5828 YH, 1 μM foliar, 3 to 5 weeks",5.40 cm
same,Δ Height Normalized as a percentage of control height,"corn [4]; corn Beck's 5828 YH, 1 μM foliar, vs water control",+3.7%
DRLSSGKRINNASDDAAGLAIA [SEQ ID NO: 294],Avg. Activity (%) Soybean (297 R4) 100 nM polypeptide,[1]; [9],90.0%
DRLSSGKRINSASDDAAGLQIA (listed as Bacillus thuringiensis) [SEQ ID NO: 572],Description of ROS activity results (soybean),[1]; [11],A20Q mutation: Negative ROS activation
same,Description of ROS activity results (corn),"[2]; mutant versus native Bt.4Q7Flg22, observed",A20Q mutation: Negative ROS activation
DRLSSGKRINSASDDPAGLAIA [Syn05Flg22],% Activity (compared to Syn0Flg22; SEQ ID NO: 578),"[1]; soybean leaf discs, Table 73 data set",100.0%
same,Polypeptide Concentration (nM) for 5 × 10^4 total RLU production,"[1]; soybean leaf discs, from best-fit regression, Table 73 data set",89.8 nM
same,% Activity (compared to unmodified Syn05Flg22 (SEQ ID NO: 578)),[2]; corn leaf slices,100.0%
same,Polypeptide Concentration (nM) for 5 × 10^4 total RLU production,"[2]; corn leaf slices, from best-fit regression",19.5 nM
DRLSSGQRINSASDDAAGLAIA [SEQ ID NO: 579],"Description of ROS activity results (soybean), predicted",[1]; [12],K7Q mutation: Strong reduction in ROS
same,"Description of ROS activity results (corn), predicted",[2]; [12],K7Q mutation: Strong reduction in ROS
EKLSSGFRINRAGDDAAGLAIS (Lysinibacillus macroides) [SEQ ID NO: 584],Avg. Activity (%) Corn (5828 YX) 5 nM polypeptide,"[2]; Table 33, RLU relative to native Bt.4Q7Flg22 = 100, listed as Lm.Flg22-L6",58.7% and 33.7%
EKLSSGQRINSASDDAAGLAIS (listed as Bacillus aryabhattai) [SEQ ID NO: 289],Avg. Activity (%) Soybean (297 R4) 100 nM polypeptide,[1]; [9],42.2%
same,Avg. Activity (%) Corn (5828 YX) 5 nM polypeptide,[2]; [9],27.1%
EKLSSGYKINRASDDAAGLAIS (Lysinibacillus spp.) [SEQ ID NO: 581],Avg. Activity (%) Soybean (297 R4) 100 nM polypeptide,[1]; [9],96.9%
same,Avg. Activity (%) Corn (5828 YX) 5 nM polypeptide,[2]; [9],36.4%
"ESTNILQRMRELAVQSRNDSNSATDREA (listed as Pseudomonas syringae) [Ps.tomato FlgII-28, FlgII-28 from Pseudomonas syringae pv. tomato DC3000]",RLU relative to Bt.4Q7Flg22 at the same concentration,[3]; 5 nM,~31 ×
same,ROS response,[3]; 5 nM,strong ROS response
same,ROS response,[3]; 100 nM,strong ROS response
GKLSSGLRINGASDDAAGLAIS (listed as Paenibacillus sp.) [Pa.Flg22],Avg. Activity (%) Soybean (297 R4) 100 nM polypeptide,[1]; [9],88.6%
same,Avg. Activity (%) Corn (5828 YX) 5 nM polypeptide,[2]; [9],116.0%
same,Average Yield Bu/Ac,"soybean [5]; seed treatment on base ST, 1 variety, 1 location, four replicate plots, polypeptide 1.0 μM (cellobiose 1 mM where combined)",41.39 Bu/Ac
same,Average Change in Bu/Ac compared to Untreated Control,soybean [5]; [13],+0.28 Bu/Ac
same,yield gain vs base seed treatment only,"corn [6]; 1 uM in slurry, 3 hybrids, 8 locations",3.57 Bu/Ac
same,Average Yield Bu/Ac,"corn [6]; seed treatment on base ST, BECK's 5828YX, 1 location, four replicated trials, polypeptide 1.0 μM (cellobiose 1 mM where combined)",39.04 Bu/Ac
same,Average Change in Bu/Ac compared to Untreated Control,"corn [6]; seed treatment on base ST, BECK's 5828YX, polypeptide 1.0 μM (cellobiose 1 mM where combined)",+11.04 Bu/Ac
L spp.Flg22-L2 (EKLSSGLRINRAGDDAAGLAIS),Avg. Activity (%) Soybean (297 R4) 100 nM polypeptide,[1]; [9],128.6%
same,Avg. Activity (%) Soybean (297 R4) 100 nM polypeptide,[1]; [10],138.86%
same,Avg. Activity (%) Corn (5828 YX) 5 nM polypeptide,[2]; [9],104.5%
same,Avg. Activity (%) Corn (5828 YX) 5 nM polypeptide,[2]; [10],113.04%
LRISSGYRINSAADDPAGLAIS (Lysinibacillus spp.) [SEQ ID NO: 582],Avg. Activity (%) Soybean (297 R4) 100 nM polypeptide,[1]; [9],117.9%
same,Avg. Activity (%) Corn (5828 YX) 5 nM polypeptide,[2]; [9],60.1%
LRISTGYRINSAADDPAGLAIS (listed as Lysinibacillus fusiformis) [SEQ ID NO: 583],Avg. Activity (%) Soybean (297 R4) 100 nM polypeptide,[1]; [9],111.6%
same,Avg. Activity (%) Corn (5828 YX) 5 nM polypeptide,[2]; [9],59.3%
LRLSSGYRINSAADDAAGLAIS (listed as Lysinibacillus sp.) [SEQ ID NO: 291],Avg. Activity (%) Soybean (297 R4) 100 nM polypeptide,[1]; [9],64.1%
same,Avg. Activity (%) Corn (5828 YX) 5 nM polypeptide,[2]; [9],26.6%
NQGISEKQLDQLLTQLIMALLQQ (Xanthomonas species) [HpaG-like],growth phenotype vs control,corn [4]; heat and water deficit stress,not stressed environments
same,growth phenotype vs control,corn [4]; non-stressed environment,improved growth phenotype in normal environments
NRLSSGKQINSASDDAAGLAIA (listed as Bacillus manliponensis) [SEQ ID NO: 290],Avg. Activity (%) Soybean (297 R4) 100 nM polypeptide,[1]; [9],74.6%
same,Avg. Activity (%) Corn (5828 YX) 5 nM polypeptide,[2]; [9],106.0%
NRLSSGKRINSAADDAAGLAIA [SEQ ID NO: 295],Avg. Activity (%) Soybean (297 R4) 100 nM polypeptide,[1]; [9],83.0%
same,Avg. Activity (%) Soybean (297 R4) 100 nM polypeptide,[1]; [10],97.59%
same,Avg. Activity (%) Corn (5828 YX) 5 nM polypeptide,[2]; [9],134.7%
same,Avg. Activity (%) Corn (5828 YX) 5 nM polypeptide,[2]; [10],142.53%
NRLSSGKRINTAADDAAGLAIS (listed as Burkholderia ubonensis) [SEQ ID NO: 538],Avg. Activity (%) Soybean (297 R4) 100 nM polypeptide,[1]; [9],91.1%
same,Avg. Activity (%) Corn (5828 YX) 5 nM polypeptide,[2]; [9],92.9%
P spp.Flg22-B6 (GKLSSGLRINGASDDAAGLAIS),Avg. Activity (%) Soybean (297 R4) 100 nM polypeptide,[1]; [9],112.5%
same,Avg. Activity (%) Soybean (297 R4) 100 nM polypeptide,[1]; [10],132.95%
same,Avg. Activity (%) Corn (5828 YX) 5 nM polypeptide,[2]; [9],135.3%
same,Avg. Activity (%) Corn (5828 YX) 5 nM polypeptide,[2]; [10],103.61%
QRLSSGKRINSASDDAAGLAIA (listed as Bacillus thuringiensis) [Bt.4Q7Flg22-Syn03],Description of ROS activity results (soybean),[1]; [11],D1Q mutation: Strong ROS activation in
same,ROS activity compared to native Bt.4Q7Flg22,"[2]; 0.25-100 nM, tissue not given",increased ROS activities
same,ROS-inducing activity among tested polypeptides,[2]; corn (5 nM) and soybean (100 nM),strongest ROS-inducing activity
RI Bt.4Q7Flg22: retro-inverso form of Bt.4Q7Flg22 ([dA][dI][dA][dL]G[dA][dA][dD][dD][dS][dA][dS][dN][dI][dR][dK]G[dS][dS][dL][dR][dD]; listed as Bacillus thuringiensis),average yield increase vs non-treated control,corn [7],11.90 Bu/Ac
same,win rate,corn [7],70%
same,win rate,"soybean [5]; third study, 12 locations",55%
same,yield benefit,"soybean [5]; third study, 12 locations",0.3 Bu/Ac
same,yield advantage,"corn [6]; second study, 12 locations",0.5 Bu/Ac
same,win rate,soybean [8]; R2 foliar 0.33 Fl. oz/Ac,64%
same,average yield change vs non-treated control,"soybean [8]; R2 foliar, Flg22 polypeptides 0.33 Fl. oz/Ac, RHPP 4 Fl. oz/Ac",0.90 Bu/Ac
Syn03Flg22 (QRLSSGKRINSASDDAAGLAIA),Average Change in Bu/Ac compared to Untreated Control,soybean [5]; [13],+2.50 Bu/Ac
